The source of these data is PMC12257542, “A Radiolabeled Photoswitchable G Protein-Coupled Receptor Antagonist Enlightens Ligand Binding Kinetics Associated with Photoswitching” (Journal of the American Chemical Society, 2025).

One series addresses T1, mouse H3R (Mus musculus, UniProt P58406).
T1 construct: expressed in transfected cells; host or cells: HEK293T, transient transfection (pcDEF3), cell homogenates
The series is described as follows: [3H]NAMH competition radioligand binding on mH3R-expressing cell homogenates. As for the experimental part: Figure S15. Histamine receptor selectivity binding experiments. Concentration binding curves of trans-3f on cell homogenates expressing H1R (in competition with 4.0-4.8 nM [3H]mepyramine) or H4R (competition with 1.9-2.4 nM [3H]histamine. H2R binding was […]
KAT478). Pooled data of three independent experiments are shown as mean ± SEM.
Figure S16. Radioligand binding experiments with 3f on mH3R-expressing cell homogenates in competition with [3H]NAMH (1.4-1.7 nM). Pooled data of three independent experiments […]
Experimental procedures - Pharmacology […]
were purchased from Promega.
HEK293T cells stably expressing
48 hours post transfection,
[3H]3f binding experiments […]
by sonication (Sonifier Branson).
RT) containing 0.8% ethanol.
The incubation was terminated by
H2R selectivity was assessed
Cells were incubated with ligands

Series [1] in a line: Nephelometry (qualitative solubility comparison). It is filed as physicochemical. The following applies: trans state for VUF14862, either state for 3f.
For another series, the target named is hH3R (Homo sapiens, UniProt Q9Y5N1). The series is described as follows: Competition binding of non-labeled ligands with trans-[3H]3f on hH3R-expressing cell homogenates. Conditions: read-out: pKi in competition with trans-[3H]3f (converted).
hH3R, sequence (Q9Y5N1 whole entry): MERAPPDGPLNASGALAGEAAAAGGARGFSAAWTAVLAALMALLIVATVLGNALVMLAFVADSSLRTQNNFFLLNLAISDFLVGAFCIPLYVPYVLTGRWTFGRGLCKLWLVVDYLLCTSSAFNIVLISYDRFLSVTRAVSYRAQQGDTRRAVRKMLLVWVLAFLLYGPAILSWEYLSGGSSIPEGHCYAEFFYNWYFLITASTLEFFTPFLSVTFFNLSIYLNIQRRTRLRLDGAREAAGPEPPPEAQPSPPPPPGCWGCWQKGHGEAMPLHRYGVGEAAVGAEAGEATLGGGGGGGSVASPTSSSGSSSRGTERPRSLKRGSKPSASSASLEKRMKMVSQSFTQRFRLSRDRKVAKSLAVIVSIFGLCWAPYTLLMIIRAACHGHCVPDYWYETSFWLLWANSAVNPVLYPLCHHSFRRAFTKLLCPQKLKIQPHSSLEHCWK
A further series addresses Nluc-H2R (Homo sapiens, UniProt P25021). It is filed as binding. Conditions: trans isomer; at concentrations lower than 1 μM; competition with 50 nM UR-KAT478.
Series [2] can be described thus: Detailed photochemical characterization of 3f (1H NMR, UV-vis switching cycles). It is filed as physicochemical. On the procedure:
Figure S10. Photochemical properties of 3f. (A) UV-vis spectra of 25 µM 3f in HBSS buffer containing 1% DMSO in the dark, after illumination to PSScis with 365 ± 10 nm for 2 min and after subsequent illumination to PSStrans with 506 ± 20 nm for 2 min. (B) Representative parts of LC−MS chromatograms of 3f in the dark, after illumination with 365 ± 10 nm for 300 s to reach PSScis and subsequently with 506 ± 20 nm for 300 s to reach PSStrans (full chromatograms […]
(C) Part of 1H NMR spectra of 10 mM 3f in DMSO-d6 (representing the two aromatic signals) in the dark, after illumination with 365 ± 10 nm for 600 s to reach PSScis and subsequently 506 ± 20 nm for 900 s to reach PSStrans (full spectra are shown in Figure S12). (D) Reversible isomerization cycles of 25 µM 3f in HBSS buffer containing 1% DMSO, repeatedly illuminated for 30 s with 365 ± 10 nm to reach PSScis and subsequently for […]
60 s with 506 ± 20 nm to reach PSStrans. […]
states in the 400-550 nm area (Figure S10A). This allows efficient trans-PSScis photoswitching in HBSS buffer using UV light (365 nm) and PSScis-PSStrans back-switching with green light (506 nm). LC-MS analysis (Figure S10B, S11) and, more quantitively, 1H NMR analysis (Figure S10C, S12) reveal high PSScis and PSStrans values for 3f (98% and >95% cis isomer for PSScis by LC-MS and 1H NMR analysis, respectively; 93% and 93% trans isomer for PSStrans by LC-MS and 1H NMR analysis, respectively). These analyses also confirmed that no photodecomposition occurs upon illumination with either 365 or 506 nm. Reversible isomerization cycles could be conducted in HBSS buffer without any photobleaching (Figure […]
S10D). […] Subsequently, the […]
UV−Vis spectra were recorded using a Thermo-scientific Evolution 201 PC spectrophotometer equipped with a thermostated cell holder set at 20 °C. […] The light intensity used for the lambda 10-3 optical filter is 0.93 mW/mm2 using the 360 ± 20 nm filter, 0.79 mW/mm2 for the 434 ± 9 nm filter, 0.77 mW/mm2 for the 494 ± 9 nm filter as measured using a Thorlabs PM16−401 power meter. […]

Series [3] addresses T2, H3R (Homo sapiens, UniProt Q9Y5N1). Briefly: Functional H3R NanoBiT-PKA (cAMP sensor) assay in transiently transfected HEK293T cells. It is filed as cell-based.
The target of series [4] is T2, H3R. The series is described as follows: [3H]NAMH competition radioligand binding on cell homogenates overexpressing H3R. Conditions: for Ki: [3H]NAMH competition, n = 3.

Several values for one entry are separate records, joined by “and”; a condition that tells them apart may be missing. Equal entries are not always repeated. Where two headings read alike, the source gives them in different places. Bounds are passed on as bounds.

T2 sequence (Q9Y5N1 whole entry): as above
T1 sequence (P58406 whole entry): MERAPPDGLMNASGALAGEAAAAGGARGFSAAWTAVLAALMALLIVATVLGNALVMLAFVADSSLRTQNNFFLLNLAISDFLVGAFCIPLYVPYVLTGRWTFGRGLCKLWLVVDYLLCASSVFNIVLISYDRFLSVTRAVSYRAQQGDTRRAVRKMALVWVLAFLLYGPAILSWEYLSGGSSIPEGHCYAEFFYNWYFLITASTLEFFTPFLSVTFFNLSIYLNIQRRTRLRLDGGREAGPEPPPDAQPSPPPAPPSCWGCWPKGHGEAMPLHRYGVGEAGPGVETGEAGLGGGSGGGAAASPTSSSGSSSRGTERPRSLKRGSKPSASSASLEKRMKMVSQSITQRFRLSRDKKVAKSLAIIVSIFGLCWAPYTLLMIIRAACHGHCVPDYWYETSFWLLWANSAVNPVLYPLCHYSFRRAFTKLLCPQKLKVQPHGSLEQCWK
Nluc-H2R, sequence (P25021 whole entry): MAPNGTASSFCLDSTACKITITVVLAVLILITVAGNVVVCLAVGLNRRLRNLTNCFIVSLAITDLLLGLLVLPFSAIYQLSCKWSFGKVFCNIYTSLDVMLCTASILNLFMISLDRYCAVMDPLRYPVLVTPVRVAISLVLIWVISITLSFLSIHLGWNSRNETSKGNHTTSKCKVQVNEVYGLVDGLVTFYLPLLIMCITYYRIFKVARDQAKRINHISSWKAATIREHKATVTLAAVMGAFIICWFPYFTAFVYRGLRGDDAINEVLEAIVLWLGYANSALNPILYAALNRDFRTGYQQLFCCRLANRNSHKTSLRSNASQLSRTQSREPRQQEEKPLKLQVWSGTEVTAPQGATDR

Take `Cc1nn(C2CCN(C)CC2)c(C)c1/N=N/c1ccc(O[C@H]2C[C@H](N3CCCCC3)C2)cc1` [Compound 3f]: the Ki on mouse H3R (trans isomer, [3H]NAMH (1.4-1.7 nM), read-out: pKi mouse H3R (converted)) was 0.00158 µM; at hH3R (unlabeled PSS cis state), 0.02 µM; on hH3R (unlabeled trans isomer), 0.001 µM; at H3R [4] (pKi PSScis ± SEM, PSS cis state) it was 0.0251 µM; on H3R [4] (pKi trans ± SEM, trans isomer), 0.000501 µM. Further, the “fold shift in affinity upon photoisomerization to PSS cis (mouse H3R)” value at mouse H3R (trans versus PSS cis) was 42 fold. Further, the “concentrations with tendency to aggregate/precipitate” value in series [1] is listed as “not observed”. The “binding to H2R” value at Nluc-H2R was “does not bind”. For the same compound, the “PSScis (% cis isomer) by 1H NMR” value in series [2] (10 mM in DMSO-d6, 365 ± 10 nm for 600 s) is listed as above 95%. Further, in series [2] (10 mM in DMSO-d6, 506 ± 20 nm for 900 s), the “PSStrans (% trans isomer) by 1H NMR” value is on record as 93%. Moreover, the photodecomposition upon illumination entry in series [2] (illumination with either 365 or 506 nm, LC-MS and 1H NMR) was “no”. The “block of the H3R agonist response” value at H3R [3] (100 nM trans-3f preincubated, 10 nM immethridine, dark) is reported as “approximately 80%”. Also, the “reversal of the response, % of the maximal agonist response” value at H3R [3] (100 nM trans-3f, 10 nM immethridine, after 365 nm LED light 10 min, 2 mW) is “approximately 80%”. In addition, the IC50 at H3R [3] (365 nm 10 min (second cycle), 10 nM immethridine, read-out: pIC50, dynamic trans-3f switching step 4 (converted)) was 0.398 µM; on H3R [3] (365 nm 10 min, 10 nM immethridine, read-out: pIC50, dynamic trans-3f switching step 2 (converted)), 0.794 µM; at H3R [3] (500 nm 10 min (second cycle), 10 nM immethridine, read-out: pIC50, dynamic trans-3f switching step 5 (converted)) it was 0.0501 µM; on H3R [3] (500 nm 10 min, 10 nM immethridine, read-out: pIC50, dynamic trans-3f switching step 3 (converted)), 0.0501 µM; on H3R [3] (PSS cis (pre-illuminated trans-3f), competition with 10 nM immethridine, 15 min incubation, read-out: pIC50 3f-PSScis (converted)), 0.398 µM; on H3R [3] (no irradiation (dark), 10 nM immethridine, read-out: pIC50, dynamic trans-3f switching step 1 (converted)) it was 0.02 µM. For the same compound, the IC50 on H3R [3] (trans isomer, competition with 10 nM immethridine, 15 min incubation, read-out: pIC50 trans-3f (converted)) was 0.0316 µM. The “Fold IC50 shift” value on H3R [3] (trans-3f versus 3f-PSS cis) is 12.6 fold. Further, on H3R [4] ((high-affinity state)/(low-affinity state), ↓ lower affinity of PSS cis state than trans), the “Fold Ki shift” value was 50 fold and 50.1 ↓ fold.
